Experimental data as given in patent US20220024921A1, “1,3,4-OXADIAZOLONE COMPOUND AND PHARMACEUTICAL” (NIPPON SHINYAKU CO., LTD., priority 2018, published 2022).
Structures can show the parent of a compound that is named as a salt.

Target: T1, PIM1 serine/threonine kinase (Homo sapiens, UniProt P11309)
T1 construct: purchased Carna Bioscience, Inc
Assay: PIM1 serine/threonine kinase inhibitory effect
Type: biochemical
Conditions: PIM1 serine/threonine kinase activity; ATP 40 μM; 30° C., 30 minutes
Protocol: Each test substance was prepared to 10 mM with dimethylsulfoxide (DMSO), and further diluted with DMSO so as to have concentrations of 1000, 300, 100, 30, 10, 3, 1, 0.3, 0.1, 0.03, 0.01, and 0.001 μM. Moreover, each dilution was further diluted 33.3-fold with an assay buffer to prepare a test substance solution. The composition of the assay buffer was 50 mM HEPES (pH 7.0), 0.02% NaN3, 0.01% Bovine Serum Albumin, 0.1 mM Orthovanadate, 1 mM Dithiothreitol, and 5 mM MgCl2.
5 μL of each test substance solution was added to 384-well plates (n=2), and then 2.5 μL of a substrate solution (substrate 3-biotin (Cisbio Bioassays SAS), final concentration in the reaction solution: 0.5 μM) and 2.5 μL of an ATP solution (in the cases of PIM1, 2, 3, the final concentrations in the reaction solutions were 40, 2, and 10 μM, respectively) were added, 5 μL of each of PIM1, 2, 3 serine/threonine kinase solutions (Carna Bioscience, Inc., the final concentrations in the reaction solutions were 0.15, 1.6, and 0.25 μg/ml, respectively) was finally added, and the mixture was reacted at 30° C. for 30 minutes. The test substance concentrations in the reaction solutions are 10000, 3000, 1000, 300, 100, 30, 10, 3, 1, 0.3, 0.1, and 0.01 nM.
Thereafter, 15 μL of each detection solution (62.5 nM Streptavidin-XL665 (Cisbio Bioassays SAS), […] STK antibody-Cryptate (Cisbio Bioassays SAS), 50 mM HEPES (pH 7.0), 0.8 M KF, 0.1% Bovine Serum Albumin, 20 mM ethylenediaminetetraacetic acid) was added to each well. After stirring, the mixture was reacted at 30° C. for 1 hour. Absorbance (OD620, OD665) at 620 and 665 nm was measured with a microplate reader (SpectraMax M5e, Molecular Devices, LLC).
Non-linear regression analysis was performed by an SAS system (SAS Institute Inc.) using the ratio (OD665/OD620) of the measured absorbance to calculate a test substance concentration (IC50) that inhibits PIM1 serine/threonine kinase activity by 50%.

T1 sequence (P11309 whole entry): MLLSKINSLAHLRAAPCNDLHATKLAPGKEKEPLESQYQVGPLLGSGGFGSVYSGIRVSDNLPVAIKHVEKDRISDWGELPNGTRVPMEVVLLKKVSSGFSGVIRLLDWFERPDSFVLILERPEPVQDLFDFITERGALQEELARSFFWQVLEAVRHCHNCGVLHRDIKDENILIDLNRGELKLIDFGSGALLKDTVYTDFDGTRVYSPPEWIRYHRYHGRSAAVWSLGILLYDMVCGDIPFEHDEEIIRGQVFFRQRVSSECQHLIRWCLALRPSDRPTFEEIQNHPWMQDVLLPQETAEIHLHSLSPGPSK

SMILES	IC50 [µM]
NCCCNc1cc(-c2n[nH]c(=O)o2)ccc1C(F)(F)F [Example 2, 5-{3-[(3-aminopropyl)amino]-4-(trifluoromethyl)phenyl}-1,3,4-oxadiazol-2(3H)-one]	0.027
CC(C)(C)OC(=O)N1CCN(c2cc(-c3n[nH]c(=O)o3)ccc2Cl)CC1 [Example 7, tert-butyl 4-[2-chloro-5-(5-oxo-4,5-dihydro-1,3,4-oxadiazol-2-yl)phenyl]piperazine-1-carboxylate]	4.1
O=c1[nH]nc(-c2ccc(Cl)c(N3CCNCC3)c2)o1 [Example 8, 5-[4-chloro-3-(piperazin-1-yl)phenyl]-1,3,4-oxadiazol-2(3H)-one hydrochloride]	0.81
NC1CCN(c2cc(-c3n[nH]c(=O)o3)ccc2C(F)(F)F)CC1 [Example 9, 5-[3-(4-aminopiperidin-1-yl)-4-(trifluoromethyl)phenyl]-1,3,4-oxadiazol-2(3H)-one hydrochloride]	0.045
CC(C)(C)OC(=O)NCc1cccc(-c2cc(-c3n[nH]c(=O)o3)ccc2Cl)c1 [Example 17, tert-butyl {[2′-chloro-5′-(5-oxo-4,5-dihydro-1,3,4-oxadiazol-2-yl)[1,1′-biphenyl]-3-yl]methyl}carbamate]	1.3
CC(C)(C)OC(=O)NCc1ccc(-c2cc(-c3n[nH]c(=O)o3)ccc2C(F)(F)F)cc1 [Example 19, tert-butyl {[5′-(5-oxo-4,5-dihydro-1,3,4-oxadiazol-2-yl)-2′-(trifluoromethyl)[1,1′-biphenyl]-4-yl]methyl}carbamate]	1.5
NCc1cccc(-c2cc(-c3n[nH]c(=O)o3)ccc2C(F)(F)F)c1 [Example 21, 5-[3′-(aminomethyl)-6-(trifluoromethyl)[1,1′-biphenyl]-3-yl]-1,3,4-oxadiazol-2(3H)-one hydrochloride]	0.16
O=c1[nH]nc(-c2ccc(C(F)(F)F)c(-c3ccc(OCC4CCNCC4)cc3)c2)o1 [Example 23, 5-{4′-[(piperidin-4-yl)methoxy]-6-(trifluoromethyl)[1,1′-biphenyl]-3-yl}-1,3,4-oxadiazol-2(3H)-one hydrochloride]	0.11
NCc1ccc(Nc2cc(-c3n[nH]c(=O)o3)ccc2C(F)(F)F)cc1 [Example 41, 5-{3-[4-(aminomethyl)anilino]-4-(trifluoromethyl)phenyl}-1,3,4-oxadiazol-2(3H)-one hydrochloride]	0.04
N[C@H]1CC[C@H](CNc2cccc(-c3n[nH]c(=O)o3)c2)CC1 [Example 62, 5-[3-({[(1r,4r)-4-aminocyclohexyl]methyl}amino)phenyl]-1,3,4-oxadiazol-2(3H)-one hydrochloride]	0.14
C[C@H](Nc1cc(-c2n[nH]c(=O)o2)ccc1F)C1CCNCC1 [Example 80, 5-(4-fluoro-3-{[(1S)-1-(piperidin-4-yl)ethyl]amino}phenyl)-1,3,4-oxadiazol-2(3H)-one hydrochloride]	0.056
COc1ccc(-c2n[nH]c(=O)o2)cc1N[C@@H](C)C1CCNCC1 [Example 82, 5-(4-methoxy-3-{[(1S)-1-(piperidin-4-yl)ethyl]amino}phenyl)-1,3,4-oxadiazol-2(3H)-one dihydrochloride]	0.071
Cc1c(-c2n[nH]c(=O)o2)cc(Cl)c(Cl)c1N[C@@H](C)C1CCNCC1 [Example 93, 5-(4,5-dichloro-2-methyl-3-{[(1S)-1-(piperidin-4-yl)ethyl]amino}phenyl)-1,3,4-oxadiazol-2(3H)-one hydrochloride]	0.036
C[C@H](Nc1cc(-c2n[nH]c(=O)o2)cc(C2CC2)c1Cl)C1CCNCC1 [Example 102, 5-(4-chloro-3-cyclopropyl-5-{[(1S)-1-(piperidin-4-yl)ethyl]amino}phenyl)-1,3,4-oxadiazol-2(3H)-one]	0.036
C[C@H](Nc1cc(-c2n[nH]c(=O)o2)ccn1)C1CCNCC1 [Example 112, 5-(2-{[(1S)-1-(piperidin-4-yl)ethyl]amino}pyridin-4-yl)-1,3,4-oxadiazol-2(3H)-one dihydrochloride]	0.6
CC(C)(C)OC(=O)[C@H]1CC[C@H](CNc2cc(-c3n[nH]c(=O)o3)ccc2C(F)(F)F)CC1 [Example 118, tert-butyl (1r,4r)-4-{[5-(5-oxo-4,5-dihydro-1,3,4-oxadiazol-2-yl)-2-(trifluoromethyl)anilino]methyl}cyclohexane-1-carboxylate]	7.3
O=c1[nH]nc(-c2ccc(C(F)(F)F)c(NC[C@H]3CC[C@H](C(=O)O)CC3)c2)o1 [Example 119, (1r,4r)-4-{[5-(5-oxo-4,5-dihydro-1,3,4-oxadiazol-2-yl)-2-(trifluoromethyl)anilino]methyl}cyclohexane-1-carboxylic acid]	1.8
O=c1[nH]nc(-c2ccc(C(F)(F)F)c(NC[C@H]3CC[C@H](CO)CC3)c2)o1 [Example 120, 5-[3-({[(1r,4r)-4-(hydroxymethyl)cyclohexyl]methyl}amino)-4-(trifluoromethyl)phenyl]-1,3,4-oxadiazol-2(3H)-one]	0.59
NC(=O)[C@H]1CC[C@H](CNc2cc(-c3n[nH]c(=O)o3)ccc2C(F)(F)F)CC1 [Example 121, (1r,4r)-4-{[5-(5-oxo-4,5-dihydro-1,3,4-oxadiazol-2-yl)-2-(trifluoromethyl)anilino]methyl}cyclohexane-1-carboxamide]	0.12
C[C@H](Nc1cc(-c2n[nH]c(=O)o2)ccc1S(C)(=O)=O)C1CCNCC1 [Example 128, 5-[4-(methanesulfonyl)-3-{[(1S)-1-(piperidin-4-yl)ethyl]amino}phenyl]-1,3,4-oxadiazol-2(3H)-one hydrochloride]	0.082
CC(C[C@@H]1CCNC1)Nc1cc(-c2n[nH]c(=O)o2)ccc1C(F)(F)F (stereo partly drawn) [Example 134, 5-[3-({1-[(3S)-pyrrolidin-3-yl]propan-2-yl}amino)-4-(trifluoromethyl)phenyl]-1,3,4-oxadiazol-2(3H)-one hydrochloride]	0.014
CC(C[C@H]1CCNC1)Nc1cc(-c2n[nH]c(=O)o2)ccc1C(F)(F)F (stereo partly drawn) [Example 136, 5-[3-({1-[(3R)-pyrrolidin-3-yl]propan-2-yl}amino)-4-(trifluoromethyl)phenyl]-1,3,4-oxadiazol-2(3H)-one hydrochloride]	0.016
O=c1[nH]nc(-c2ccc(C(F)(F)F)c(N[C@@H](C3CCNCC3)C(F)(F)F)c2)o1 [Example 147, 5-[4-(trifluoromethyl)-3-{[(1S)-2,2,2-trifluoro-1-(piperidin-4-yl)ethyl]amino}phenyl]-1,3,4-oxadiazol-2(3H)-one hydrochloride]	0.023
CN(Cc1cc(-c2n[nH]c(=O)o2)ccc1Cl)C1CCNCC1 [Example 205, 5-(4-chloro-3-{[methyl(piperidin-4-yl)amino]methyl}phenyl)-1,3,4-oxadiazol-2(3H)-one dihydrochloride]	0.29
CC(=O)N1CCC(N(C)Cc2cc(-c3n[nH]c(=O)o3)ccc2Cl)CC1 [Example 215, 5-(3-{[(1-acetylpiperidin-4-yl)(methyl)amino]methyl}-4-chlorophenyl)-1,3,4-oxadiazol-2(3H)-one hydrochloride]	8.8
